In PubChem BioAssay (NCI):
“And” between values parts separate entries of the source, which are not always exact repeats. Equal entries are not always repeated.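 In this assay, cells in 96-well plates receive the compound at five concentrations for 48 hours. Endpoints are linearly interpolated between the surrounding concentrations. Here, GI50 denotes the concentration required for 50% inhibition of growth. TGI marks complete inhibition of growth.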

Experiments:
Experiment in all cases: growth of human tumour cells (NCI), 48 h
OVCAR-8 ovarian = tested on: OVCAR-8 ovarian
SK-MEL-2 melanoma = tested on: SK-MEL-2 melanoma
NCI-H460 lung = tested on: NCI-H460 lung
HT29 colon = tested on: HT29 colon
HOP-92 NSCLC = tested on: HOP-92 NSCLC
LOX IMVI melanoma = tested on: LOX IMVI melanoma
SF-268 CNS = tested on: SF-268 CNS
MDA-MB-231 breast = tested on: MDA-MB-231 breast
UACC-257 melanoma = tested on: UACC-257 melanoma
SNB-75 CNS = tested on: SNB-75 CNS

Row | SMILES | GI50 (OVCAR-8 ovarian) | TGI (OVCAR-8 ovarian) | GI50 (SK-MEL-2 melanoma) | TGI (SK-MEL-2 melanoma) | GI50 (NCI-H460 lung) | TGI (NCI-H460 lung) | GI50 (HT29 colon) | TGI (HT29 colon) | GI50 (HOP-92 NSCLC) | TGI (HOP-92 NSCLC) | GI50 (LOX IMVI melanoma) | TGI (LOX IMVI melanoma) | GI50 (SF-268 CNS) | TGI (SF-268 CNS) | GI50 (MDA-MB-231 breast) | TGI (MDA-MB-231 breast) | GI50 (UACC-257 melanoma) | TGI (UACC-257 melanoma) | GI50 (SNB-75 CNS) | TGI (SNB-75 CNS)
1 | N=C(N)c1ccc(-c2ccc(-c3ccco3)o2)cc1 | 8.22 µM | 30.7 µM | 2.41 µM | 4.65 µM | 2.43 µM | 6.6 µM | 2.78 µM | 8.47 µM | 1.38 µM | 4.7 µM | 2.23 µM | 5.2 µM | 4.85 µM | 18.7 µM | 2.75 µM | 7.75 µM | 1.84 µM | 3.73 µM | 10.7 µM | 23.2 µM
2 | Oc1ccc(Br)cc1CN1CCN(Cc2ccc(Cl)cc2)CC1 | 24.8 µM | > 100 µM | 13.2 µM | 40.3 µM | 25.7 µM | > 100 µM | 23.2 µM | 62.5 µM | 11.1 µM | 72.1 µM | 16.3 µM | 36.9 µM | 31.5 µM | > 100 µM | 17 µM | 59.4 µM | 16.5 µM | 59.4 µM | 27.6 µM | > 100 µM
3 | COc1cc(C2C3=C(COC3=O)N(CCO)c3cc4c(cc32)OCCO4)cc(OC)c1O (stereo not drawn) | 2.76 µM | > 50 µM | – | > 13.4 µM | 1.75 µM | > 28.5 µM | 1.67 µM | > 18.5 µM | > 50 µM | > 50 µM | 2.49 µM | > 50 µM | 3.38 µM | > 50 µM | 4.41 µM | > 50 µM | > 10.2 µM | > 50 µM | 0.713 µM | > 50 µM
4 | Nc1nc(Cl)cc2c1ncn2C1OC(CO)C(O)C1O (stereo not drawn) | > 100 µM | > 100 µM | > 100 µM | > 100 µM | > 100 µM | > 100 µM | > 100 µM | > 100 µM | > 100 µM | > 100 µM | > 100 µM | > 100 µM | > 100 µM | > 100 µM | 52.3 µM | > 100 µM | > 100 µM | > 100 µM | > 100 µM | > 100 µM
5 | CC(C)=CCNc1ncnc2c1ncn2C1OC(COP(=O)(O)O)C(O)C1O (stereo not drawn) | 1.6 µM | 3.64 µM | 16.3 µM | 99.8 µM | 7.24 µM | > 100 µM | 3.74 µM | 42.5 µM | 1.63 µM | 5.1 µM | 0.581 µM | 2.55 µM | 8.77 µM | > 100 µM | 1.85 µM | 5.48 µM | > 100 µM | > 100 µM | 2.06 µM | 34.1 µM
6 | Cc1cc(C)c2nc(Nc3nc(C)c(C)c(=O)[nH]3)nc(C)c2c1 | 2.83 µM | 10.7 µM | 2.27 µM | 7.09 µM | 2.99 µM | 11.1 µM | 2.25 µM | 6.04 µM | 2.48 µM | 9.11 µM | 1.92 µM | 5.38 µM | 2.82 µM | 13.8 µM | 2.99 µM | 12.7 µM | 2.82 µM | 9.22 µM | 2.9 µM | 13.6 µM
7 | NS(=O)(=O)OC[C@H]1O[C@@H](n2cnc3c(N[C@H]4CCc5ccccc54)ncnc32)[C@H](O)[C@@H]1O | 0.0865 µM | 1.02 µM | 0.098 µM | 0.434 µM | 0.408 µM | 2.11 µM | 0.327 µM | 5.55 µM | 0.475 µM | 0.799 µM | 0.0209 µM | 0.0572 µM | 0.122 µM | 0.449 µM | 0.47 µM | 2.92 µM | 0.213 µM | 0.577 µM | 0.358 µM | 1 µM
8 | O=c1cc(N2CCOCC2)oc2c(-c3ccccc3)cccc12 | – | > 80.1 µM and 29.1 µM | 12.1 µM | 38 µM and 36.9 µM | 6.13 µM | > 100 µM | 5.27 µM | 70.6 µM and 43.8 µM | 3.74 µM | > 100 µM and 78.5 µM | 4.34 µM | > 68.3 µM and 18.4 µM | 3.59 µM | 53 µM and 14.2 µM | 5.85 µM | 97.3 µM and 19.6 µM | 9.06 µM | 69.2 µM and 60.8 µM | 1.91 µM | 14.6 µM and 5.97 µM
9 | Cc1ccc(NC(=O)C(=O)C2C(=O)C3=C(CC2(C)C)NC2C=CC=CC2S3)c(C)c1 (stereo not drawn) | – | > 100 µM | – | > 100 µM | – | > 100 µM | – | > 100 µM | – | > 100 µM | – | > 100 µM | – | > 100 µM | – | > 100 µM | – | > 100 µM | – | > 100 µM
